In the supplement of paper PMC11061612:

What was measured:
SH-4 (Melanoma) [1] = assay: Bliss excess, mean over the matrix (fraction); higher = more synergy
How it was run: (§1)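 Cell lines in DMEM/F12 or RPMI with 10% FBS were plated in 1536-well plates, held 24 hours at 37°C, 5% CO2, then given two-drug dose matrices for 72 hours (DMSO typically 0.2%). Viability was read by CellTiter-Glo 2.0 luminescence and scaled as inhibition from 0 (vehicle wells) to 1 (blank wells). Combination Emax is the second-highest inhibition in the matrix; Bliss excess is observed combination effect minus expected EA + EB − EA·EB, EA and EB being single-agent effects.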

COLO-829 (Melanoma) [2] = assay: as above
How it was run: as §1

[3] = test system: CTB-1 (B-Cell Non-Hodgkin's Lymphoma); assay: as above
How it was run: as §1

[4] = test system: RPMI-6666 (Non-Cancerous); assay: as above
How it was run: as §1

[5] = test system: HCC-15 (Squamous Cell Lung Carcinoma); assay: combination Emax (second highest fraction inhibited in the dose matrix, 72 h); higher = more inhibition; extreme values may be limits of the assay
How it was run: as §1

SH-4 (Melanoma) [6] = assay: as above
How it was run: as §1

[7] = test system: LoVo (Colorectal Carcinoma); assay: as above
How it was run: as §1

[8] = test system: SU-DHL-6 (B-Cell Non-Hodgkin's Lymphoma); assay: as above
How it was run: as §1

[9] = test system: RT-112 (Bladder Carcinoma); assay: as above
How it was run: as §1

[10] = test system: CAL-51 (Breast Carcinoma); assay: as above
How it was run: as §1

[11] = test system: TE-4 (Esophageal Squamous Cell Carcinoma); assay: as above
How it was run: as §1

[12] = test system: SUP-T1 (T-Lymphoblastic Leukemia); assay: as above
How it was run: as §1

[13] = test system: HDLM-2 (Hodgkin's Lymphoma); assay: as above
How it was run: as §1

[14] = test system: KARPAS-231 (B-Cell Non-Hodgkin's Lymphoma); assay: as above
How it was run: as §1

NCI-H2461 (Mesothelioma) = assay: as above
How it was run: as §1

[15] = test system: SK-OV-3 (Ovarian Carcinoma); assay: as above
How it was run: as §1

[16] = test system: Hs-633T (Other Solid Carcinomas); assay: as above
How it was run: as §1

[17] = test system: OC-314 (Ovarian Carcinoma); assay: as above
How it was run: as §1

COLO-829 (Melanoma) [18] = assay: as above
How it was run: as §1

[19] = test system: NCI-H69 (Small Cell Lung Carcinoma); assay: as above
How it was run: as §1
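Wherever Bliss excess, mean over the matrix is given: after 72 h of two-drug dosing.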

| SMILES | Bliss excess (SH-4 (Melanoma) [1]) | Bliss excess (COLO-829 (Melanoma) [2]) | Bliss excess [3] | Bliss excess [4] | combination Emax [5] | combination Emax (SH-4 (Melanoma) [6]) | combination Emax [7] | combination Emax [8] | combination Emax [9] | combination Emax [10] | combination Emax [11] | combination Emax [12] | combination Emax [13] | combination Emax [14] | combination Emax (NCI-H2461 (Mesothelioma)) | combination Emax [15] | combination Emax [16] | combination Emax [17] | combination Emax (COLO-829 (Melanoma) [18]) | combination Emax [19] |
| --- | --- | --- | --- | --- | --- | --- | --- | --- | --- | --- | --- | --- | --- | --- | --- | --- | --- | --- | --- | --- |
| COc1cccc(OCCCN)c1-c1cc(Nc2cnc(C#N)cn2)n[nH]1 [Prexasertib] + C[C@@H]1COCCN1C2=NC(=NC(=C2)C3(CC3)[S@](=N)(=O)C)C4=C5C=CNC5=NC=C4 [AZD6738] (first compound max 1 µM, 7x7, partner max 10 µM) | -0.0786 | 0.001 | -0.091 | -0.0467 | 0.33 | 0.63 | 0.869 | 0.621 | 0.992 | 0.929 | 0.652 | 0.808 | 0.528 | 0.979 | 0.721 | 0.806 | 0.936 | 0.934 | 0.335 | 0.616 |
| COc1cccc2c1C(=O)c1c(O)c3c(c(O)c1C2=O)C[C@@](O)(C(=O)CO)C[C@@H]3O[C@H]1C[C@H](N)[C@H](O)[C@H](C)O1 [Doxorubicin] + Cc1cc2ncnn2cc1Nc1ncc2c(n1)n(C1CCOCC1)c(=O)n2C [AZD7648] (first compound max 1 µM, 7x7, partner max 10 µM) | 0.024 | 0.0212 | 0.077 | 0.103 | 0.284 | 0.588 | 0.688 | 0.989 | 0.9 | 0.936 | 0.443 | 0.784 | 0.545 | 0.956 | 0.867 | 0.638 | 0.932 | 1 | 0.73 | 0.747 |
| Cc1c2c(nn1C)CSCc1cc(n(C)n1)CSc1cc(c3ccccc3c1)OCCCc1c(C(=O)O)n(C)c3c-2c(Cl)ccc13 [AZD5991] + CN(C)CCCOc1ccc(-c2ccc3ncc4c(c3c2)n(C2CCOCC2)c(=O)n4C)cn1 [AZD0156] (first compound max 1 µM, 7x7, partner max 1 µM) | 0.0088 | -0.0492 | -0.0457 | -0.0605 | 0.303 | 0.316 | 0.496 | 1 | 0.876 | 0.476 | 0.481 | 0.371 | 0.985 | 1 | 0.307 | 0.342 | 0.276 | 0.239 | 0.118 | 0.314 |
| CCN(CCO)CCCOc1ccc2c(Nc3cc(CC(=O)Nc4cccc(F)c4)[nH]n3)ncnc2c1 [AZD2811] + C[C@@H]1COCCN1C2=NC(=NC(=C2)C3(CC3)[S@](=N)(=O)C)C4=C5C=CNC5=NC=C4 [AZD6738] (first compound max 1 µM, 7x7, partner max 10 µM) | -0.0474 | -0.0217 | -0.0826 | -0.0653 | 0.824 | 0.31 | 0.83 | 0.446 | 0.824 | 0.922 | 0.372 | 0.777 | 0.515 | 0.825 | 0.739 | 0.547 | 0.885 | 0.869 | 0.219 | 0.726 |
| Cc1cc2ncnn2cc1Nc1ncc2c(n1)n(C1CCOCC1)c(=O)n2C [AZD7648] + CN(C)CCCOc1ccc(-c2ccc3ncc4c(c3c2)n(C2CCOCC2)c(=O)n4C)cn1 [AZD0156] (first compound max 10 µM, 7x7, partner max 1 µM) | 0.0077 | -0.0203 | -0.0485 | -0.101 | 0.227 | 0.291 | 0.483 | 0.621 | 0.317 | 0.274 | 0.147 | 0.482 | 0.368 | 0.208 | 0.448 | 0.403 | 0.37 | 0.348 | 0.129 | 0.355 |
| C[C@@H]1COCCN1c1cc(C2([S@](C)(=N)=O)CC2)nc(-c2ccnc3[nH]ccc23)n1 [AZD6738] + O=C(c1cc(Cc2n[nH]c(=O)c3ccccc23)ccc1F)N1CCN(C(=O)C2CC2)CC1 [Olaparib] (first compound max 10 µM, 7x7, partner max 10 µM) | 0.0189 | -0.0067 | -0.0454 | -0.0839 | 0.258 | 0.419 | 0.772 | 0.621 | 0.614 | 0.926 | 0.527 | 0.767 | 0.437 | 0.723 | 0.703 | 0.6 | 0.821 | 0.872 | 0.194 | 0.585 |
| CC1(C)CCC(CN2CCN(c3ccc(C(=O)NS(=O)(=O)c4ccc(NCC5CCOCC5)c([N+](=O)[O-])c4)c(Oc4cnc5[nH]ccc5c4)c3)CC2)=C(c2ccc(Cl)cc2)C1 [Venetoclax] + C=CCn1c(=O)c2cnc(Nc3ccc(N4CCN(C)CC4)cc3)nc2n1-c1cccc(C(C)(C)O)n1 [AZD1775] (first compound max 1 µM, partner max 1 µM) | 0.0107 | -0.012 | -0.0812 | 0.0917 | 0.469 | 0.573 | 0.741 | 0.941 | 0.978 | 0.851 | 0.555 | 0.812 | 0.88 | 1 | 0.731 | 0.74 | 0.719 | 0.933 | 0.235 | 0.425 |
| CN(CCO)CC[C@H](CSc1ccccc1)Nc1ccc(S(=O)(=O)NC(=O)c2ccc(N3CCC([C@@H](O)c4ccccc4-c4ccc(Cl)cc4)CC3)cc2)cc1S(=O)(=O)C(F)(F)F [AZD4320] + C=CCn1c(=O)c2cnc(Nc3ccc(N4CCN(C)CC4)cc3)nc2n1-c1cccc(C(C)(C)O)n1 [AZD1775] (first compound max 1 µM, partner max 1 µM) | 0.0103 | -0.0167 | -0.0309 | 0.0219 | 0.946 | 0.5 | 0.838 | 1 | 0.744 | 0.907 | 0.466 | 0.909 | 0.989 | 1 | 0.782 | 0.628 | 0.856 | 0.619 | 0.265 | 0.858 |
| Cc1c2c(nn1C)CSCc1cc(n(C)n1)CSc1cc(c3ccccc3c1)OCCCc1c(C(=O)O)n(C)c3c-2c(Cl)ccc13 [AZD5991] + CCN(CCO)CCCOc1ccc2c(Nc3cc(CC(=O)Nc4cccc(F)c4)[nH]n3)ncnc2c1 [AZD2811] (first compound max 1 µM, 7x7, partner max 1 µM) | 0.0439 | -0.0319 | -0.0167 |  | 0.783 | 0.336 | 0.314 | 1 | 0.986 | 0.66 | 0.575 | 0.419 | 0.978 | 1 | 0.335 | 0.301 | 0.421 | 0.449 | 0.269 | 0.623 |
| CCc1c2c(nc3ccc(O)cc13)-c1cc3c(c(=O)n1C2)COC(=O)[C@]3(O)CC [SN-38] + O=C(c1cc(Cc2n[nH]c(=O)c3ccccc23)ccc1F)N1CCN(C(=O)C2CC2)CC1 [Olaparib] (first compound max 0.3 µM, 7x7, partner max 10 µM) | 0.0956 | -0.0186 | 0.0546 | 0.0394 |  | 0.48 | 0.717 | 1 | 0.762 | 0.801 | 0.402 | 0.84 | 0.473 | 1 | 0.639 | 0.535 | 0.842 | 1 | 0.662 | 0.692 |
| NC1(C(=O)N[C@@H](CCO)c2ccc(Cl)cc2)CCN(c2ncnc3[nH]ccc23)CC1 [Capivasertib] + Cn1cnc2c(F)c(Nc3ccc(Br)cc3Cl)c(C(=O)NOCCO)cc21 [Selumetinib] (first compound max 10 µM, 7x7, partner max 10 µM) | -0.0106 | 0.0367 |  | 0.0604 | 0.693 | 0.909 | 0.717 | 1 | 0.475 | 0.596 | 0.961 | 0.682 | 0.205 | 0.0035 | 0.569 | 0.473 | 0.633 | 0.604 | 0.818 | 0.466 |
| NC1(C(=O)N[C@@H](CCO)c2ccc(Cl)cc2)CCN(c2ncnc3[nH]ccc23)CC1 [Capivasertib] + COc1nnc2ccc(N3CCC(c4ccc(OCCN5CCN(C)C(=O)[C@H]5C)cc4)CC3)nn12 [AZD5153] (first compound max 10 µM, 7x7, partner max 1 µM) | -0.0171 | 0.011 |  | -0.0305 | 0.626 | 0.775 | 0.642 | 1 | 0.383 | 0.651 | 0.851 | 0.789 | 0.389 | 0.229 | 0.526 | 0.535 | 0.519 | 0.818 | 0.272 | 0.829 |
| CC(=O)c1c(C)c2cnc(Nc3ccc(N4CCNCC4)cn3)nc2n(C2CCCC2)c1=O [Palbociclib] + Cc1c2c(nn1C)CSCc1cc(n(C)n1)CSc1cc(c3ccccc3c1)OCCCc1c(C(=O)O)n(C)c3c-2c(Cl)ccc13 [AZD5991] (first compound max 10 µM, 7x7, partner max 1 µM) | -0.0267 | -0.0232 |  | -0.0533 | 0.247 | 0.314 | 0.557 | 1 | 0.568 | 0.357 | 0.966 | 0.656 | 0.97 | 0.657 | 0.377 | 0.179 | 0.519 | 0.334 | 0.388 | 0.471 |
